Source: patent US20260028334A1, “N-(3-(BENZO[B]THIOPHENE-2-CARBOXAMIDO)-PHENYL)-2,3-DIHYDROBENZO[B][1,4]DIOXINE-6-CARBOXAMIDE DERIVATIVES AND RELATED COMPOUNDS AS LACTATE/ATP PRODUCTION INHIBITORS FOR THE TREATMENT OF CANCER” (WMT Aktiengesellschaft, priority 2022, published 2026)

How the values were obtained:
Panc02 and SKOV3 cells [1] = assay: Lactate production inhibition assay (FIGS. 8C and 8D); type: cell-based; conditions: 48 hours treatment, 1.5 to 10000 nM
Source text: (§1) Recombinant Lactate Dehydrogenase A (LDHA) was used to convert lactate in tissue culture supernatants to pyruvate, with the concomitant reduction of NAD^+ to NADH. The electron acceptor 1-methoxyphenazine methosulfate (MPMS) was then reduced by the generated NADH, thereby regenerating NAD+. Reduced 1-methoxyphenazine methosulfate is used in turn to reduce Water Soluble Tetrazolium 8 (WST8) to an orange WST8 formazan product. The assay is adapted from the publication “Application of WST-8 based colorimetric NAD(P)H detection for quantitative dehydrogenase assays” described in Chamchoy et al., BMC Biochemistry (2019) 20(1):4.
(§2) Cells were plated at 4,000 per well in 96-well plate in a medium of high glucose DMEM (PAN) supplemented with 10% FBS (PAN), 2 mM glutamine-alanine (PAN), 2 mM pyruvate (Sigma) and 10 mL/L penicillin-streptomycin (PAN) and grown at 37° C. in 0.5% O2, 5% CO2 and 75% humidity. For hypoxia, cells were grown and treated in the Whitley H35 Hypoxystation (Don Whitley Scientific) at 37° C. in 0.5% O2, 5% CO2 and 75% humidity. The next day, cells were induced with test compounds (FIG. 2: compounds of examples 3/16, 3/8, 10 at 10000, 3333, 1111, 370, 123, 41, 14, 5 and 1.5 nM; FIG. 7: compounds of examples 3/16, 3/8, 10 at 41, 14, 4.6 nM and Phenformin at 100, 50, 25, 12.5, 6.25 μM; FIGS. 8C and 8D: compounds of example 3/16, 3/8, 10, 3/19, 30 and 30/2 at 10000, 3333, 1111, 370, 123, 41, 14, 5 and 1.5 nM), as well as with vehicle (DMSO) only, for 48 hours. After this time, the medium was removed from the cells to measure extracellular lactate. To detect extracellular lactate, cell supernatants are diluted 1:5 in assay buffer (0.2 M tris, pH 8.2) by adding 10 μl cell supernatant+40 μl buffer in a 96-well plate. Assay substrate mix is prepared by adding NAD+ (3.75 mM), WST-8 (0.9 mM), MPMS (10 mM) and recombinant LDHA, expressed in E. coli as an N-terminal hexahistidine tagged fusion protein, is added to a final concentration of 0.8 μg/ml in assay buffer. Thereafter, 80 μl of substrate mix is added to 20 μl of diluted cell supernatant in a 96-well flat-bottomed plate and the absorbance at 460 nm determined at one minute intervals over a 30 minute period. A standard curve of known lactate concentrations of 10, 8, 6, 4, 1, 0.5 and 0.25 mM was constructed for each assay plate.

lactate production = assay: Lactate production inhibition assay; type: cell-based; conditions: summary of Table 1
Source text: as §1, §2

[2] = test system: ER stress markers CHAC and CHOP/DDIT3; assay: Gene expression analysis by qPCR (FIG. 8E-8AB); type: cell-based; conditions: Panc02 and SKOV3 cells, 10 nM, 0.5, 1, 2 and 4 hours
Procedure: Cells were plated at 40,000 cells per ml in medium of high glucose DMEM (PAN) supplemented with 10% FBS (PAN), 2 mM glutamine-alanine (PAN), 2 mM pyruvate (Sigma) and 10 mL/L penicillin-streptomycin (PAN), and grown at 37° C. in 0.5% O2, 5% CO2 and 75% humidity. Next day, cells were induced with test compounds (FIG. 3: compounds of example 3/16, 3/8, 10 at 10 nM; FIG. 8E-8AB: compounds of example 3/16, 3/8, 10, 3/19, 30 and 30/2 at 10 nM) 0.5, 1, 2 and 4 hours, as well as with vehicle (DMSO) only. After this time, the cells were lysed according to protocol (Promega, SV 96 Total RNA Isolation System, #Z3505). After transferring the lysate to a 96-well-RNA binding plate, RNA was isolated and put at approx. 1 μg into cDNA synthesis using LunaScript RT SuperMix Kit (NEB, #E3010). The resulting cDNA was diluted 1:5 and used for qPCR Analysis (Taqman). Luna Universal Probe qPCR Master Mix (NEB, #M3004) is used as 2× reaction mix to which the diluted cDNA is added. The qPCR analysis was performed using QuantStudio™ 6 Flex real-time PCR systems (Thermo Fisher Scientific).
A set of primers plus probe for each gene of interest was purchased at IDT (Integrated DNA Technologies).

Panc02 and SKOV3 cells [3] = assay: Assay for inhibition of ATP production (FIGS. 8A and 8B); type: cell-based; conditions: 48 hours treatment, 1.5 to 10000 nM
Procedure: The assay determines the amount of ATP in cells in culture.
Cells were plated at 4,000 per well in 96-well plate in a medium of high glucose DMEM (PAN) supplemented with 10% FBS (PAN), 2 mM glutamine-alanine (PAN), 2 mM pyruvate (Sigma) and 10 mL/L penicillin-streptomycin and grown at 37° C. in 0.5% O2, 5% CO2 and 75% humidity. For hypoxia, cells were grown and treated in the Whitley H35 Hypoxystation (Don Whitley Scientific) at 37° C. in 0.5% O2, 5% CO2 and 75% humidity. The next day, cells were induced with test compounds (FIG. 1: compounds of examples 3/16, 3/8, 10 at 10000, 3333, 1111, 370, 123, 41, 14, 5 and 1.5 nM; FIGS. 8A and 8B: compounds of example 3/19, 30 and 30/2 at 10000, 3333, 1111, 370, 123, 41, 14, 5 and 1.5 nM), as well as with vehicle (DMSO) only, for 48 hours. After this time, the medium was removed from the cells and intracellular ATP levels were determined using the Promega CellTiter-Glo 2.0 assay protocol (Promega, G9241). To estimate the effect of compounds on the ATP production, sample values were compared to the values of DMSO only. IC50 values were generated by plotting the luciferase counts against compound concentration.

[4] = patients treated with the drug; cited from earlier work

| Structure (SMILES) | lactate levels (Panc02 and SKOV3 cells [1]) | activity in inhibiting production of ATP and/or lactate (lactate production) | ER stress markers CHAC and CHOP/DDIT3 [2] | ATP production level (Panc02 and SKOV3 cells [3]) | incidence of lactic acidosis [4] |
| --- | --- | --- | --- | --- | --- |
| O=C(Nc1ccc(F)c(NC(=O)c2cc3ccc(OCC(O)CN4CCCC4)cc3s2)c1)c1ccc2c(c1)OCCO2 (racemic) [Example 30, N-(4-Fluoro-3-(6-(2-hydroxy-3-(pyrrolidin-1-yl)propoxy)benzo[b]thiophene-2-carboxamido)phenyl)-2,3-dihydrobenzo[b][1,4]dioxine-6-carboxamide] | dose-dependent downregulation | high activity | time-dependent upregulation | dose-dependent reduction | – |
| CCN1CCN(Cc2ccc3cc(C(=O)Nc4cc(NC(=O)c5ccc6c(c5)OCCO6)ccc4F)sc3n2)CC1 [3/19] | dose-dependent downregulation | high activity | time-dependent upregulation | dose-dependent reduction | – |
| [H]/N=C(/N)N/C(=N/[H])NCCc1ccccc1 [Phenformin, phenformin] | – | – | – | – | 64 cases in 100,000 patients |
| CN(C)C(=N)N=C(N)N [Metformin, metformin] | – | – | – | – | 3 cases in 100,000 patients |
| O=C(Nc1ccc(F)c(NC(=O)c2cc3ccc(OC[C@H](O)CN4CCCC4)cc3s2)c1)c1ccc2c(c1)OCCO2 (single isomer, unassigned) [Example 30/2, N-(4-Fluoro-3-(6-(2-hydroxy-3-(pyrrolidin-1-yl)propoxy)benzo[b]thiophene-2-carboxamido)phenyl)-2,3-dihydrobenzo[b][1,4]dioxine-6-carboxamide] | dose-dependent downregulation | high activity | time-dependent upregulation | dose-dependent reduction | – |
